Patent US4464300A, “Triazolo benzazepines” (Hoffmann-La Roche Inc., priority 1981, dated 1984)

What was measured:
[1] = acute toxicity, single oral administration to mice; conditions: mouse, in vivo, p.o.
Source text: Some representative members of the class of compound defined by formula I have been investigated in the tests described below, and it has been shown that in rats and monkeys they display pronounced anxiolytic properties. Moreover, the Table contains data concerning the acute toxicity of these compounds (LD50 in the case of single oral administration to mice).

[2] = Anti-pentetrazole Test; type: in vivo, female mice; conditions: Mus musculus, po, 0.5 h; p.o., mice, 30 minutes before i.v. pentetrazole; dosage giving convulsive threshold ratio treated:untreated of 2:1; read-out: Anti-pentetrazole test, PR 2.0
Method: The compound to be tested is administered orally to groups of 6 female mice (19-21 g) and 30 minutes later there is administered intravenously (0.375 ml/minute) a 0.5 percent solution of pentetrazole in sodium chloride solution. The time from the beginning of the infusion until tonic stretchings of the hind limbs appear is measured and therefrom there is calculated the dosage of penetetrazole administered up to this point in time, which is denoted as the convulsive threshold dosage. The PR2.0 is that dosage of the test substance which is required in order that the ratio of the convulsive threshold dosage in treated animals to the convulsive threshold dosage in untreated animals amounts to 2:1.

[3] = Anti-3-mercaptopropionic Acid Test; type: in vivo, female mice; conditions: Mus musculus, po, 0.5 h; p.o., mice, 30 minutes before 48.8 mg/kg i.p. 3-mercaptopropionic acid; Probit method
Method: The compound to be tested is administered orally to female mice (19-21 g) and 30 minutes later there are administered i.p. 48.8 mg/kg of 3-mercaptopropionic acid, a dosage which in untreated animals causes after 4 minutes emprosthotonus and tonic stretching of the hind limbs. 12 mice are used per dosage. At least 6 to 8 different dosages are tested. The number of protected test animals per dosage group is determined and the ED50 is determined therefrom by means of the Probit method.

[4] = test system: spontaneous movements of rats; test: Determination of the Motor Activity; type: in vivo; conditions: Rattus norvegicus, po, 2 hours, dosage which reduces mobility to 40% of untreated animals
Method: Groups each comprising three rats (200 g) are confined in large cages. The test animals can adapt themselves to the new surroundings for 30 minutes; subsequently the test substance is administered to them orally. The spontaneous movements are registered automatically for 2 hours by means of infrared light barriers. The ED40 is that dosage which reduces to 40% the mobility of the test animals in comparison to the untreated animals.

[5] = test system: rats; test: Conflict Test in Rats; type: in vivo; conditions: Rattus norvegicus, po, 30 minutes before 1-hour conflict test; Wilcoxon test; read-out: Conflict test in rats, FSD (first significant anxiolytically-effective dosage)
Method: The test apparatus is a one-key Skinner box with a feed pellet dispenser. For the testing of potential anxiolytics there are generally used 8 fasted rats per substance and dosage. In this case, there are used rats only which respond to the known anxiolytic chlordiazepoxide.
The test substances, which are dissolved or suspended in a mixture of 10 ml of distilled water and 2 drops of Tween 80, are administered to the test animals with the aid of a probang 30 minutes before the 1-hour conflict test. During the experiment, in which each key press for a feed pellet is combined with a foot-shock (conflict), the number of key operations is registered. In this case, each test animal serves as its own control, in that it is pre-treated once with test substance and once with sodium chloride solution.
The first significant anxiolytically-effective dosage (FSD) is determined with the Wilcoxon test (comparison of pairs) by comparing the number of key operations in the main test (feed pellet+foot-shock, after pre-treatment with test substance) directly with the number of key operations in the control test (feed pellet+foot-shock, after pre-treatment with sodium chloride solution).

[6] = test system: squirrel monkeys; test: Conflict Test in Monkeys; type: in vivo, male squirrel monkeys; conditions: for minimal effective dose: Saimiri, in Primates, po, read-out: Conflict test in monkeys, MED (smallest significant effective dosage); for Conflict test in monkeys, HED (highest significant effective dosage): p.o.
Method: A two-key Skinner box with a feed pellet dispenser is used as the test apparatus. 13 fasted, male squirrel monkeys weighing 0.8 to 1 kg are used as the test animals. Upon pressing one of the keys the test animals receive a feed pellet on average every 6 minutes. Upon pressing the other key the test animals receive a feed pellet four times more frequently (i.e. on average every 1.5 minutes), but they are simultaneously punished with an electric foot-shock. The foot-shock causes a reduction in the pressing of the key which gives more frequent feed pellets. […] The smallest (MED) and the highest significant effective dosage (HED) are thereby determined.

| SMILES | LD50 [1] [mg/kg] | ED (2-fold convulsive threshold) [2] [mg/kg] | ED50 [3] [mg/kg] | ED40 [4] [mg/kg] | minimal effective dose [5] [mg/kg] | minimal effective dose [6] [mg/kg] | Conflict test in monkeys, HED (highest significant effective dosage) [6] [mg/kg] |
| --- | --- | --- | --- | --- | --- | --- | --- |
| NCc1nnc2n1-c1ccc(Cl)cc1C(c1ccccc1F)=CC2 [Compound B, 1-(aminomethyl)-8-chloro-6-(2-fluorophenyl)-4H-s-triazolo[4,3-a][1]benzazepine] | 1000 to 2000 | 5.8 | 3.7 | > 100 | 100 | 1.25 | 10 |
| O=c1[nH]nc2n1-c1ccc(Cl)cc1C(c1ccccc1F)=CC2 [Compound A, 8-chloro-6-(2-fluorophenyl)-2,4-dihydro-1H-s-triazolo[4,3-a][1]benzazepin-1-one] | > 5000 | 4.1 | 6 | > 300 | 3 | 1.25 | > 80 |
| Cc1nnc2n1-c1ccc(Cl)cc1C(c1ccccc1F)=CC2 [Compound C, 8-chloro-6-(2-fluorophenyl)-1-methyl-4H-s-triazolo[4,3-a][1]benzazepine] | > 5000 | 4 | 1.9 | 77 | 3 | 10 | > 80 |
